# Reference: the kinase profiling compilation of Christmann-Franck et al. (2016)
# What was measured:
# Test in all cases: KINOMEscan competition binding
# Settings in all cases: compound 10.0 µM
# ACVR2B (human) = ACVR2B (human) (UniProt Q13705)
# AURKB (human) = AURKB (human) (UniProt Q96GD4)
# BMPR1A (human) = BMPR1A (human) (UniProt P36894)
# CDKL2 (human) = CDKL2 (human) (UniProt Q92772)
# CHEK1 (human) = CHEK1 (human) (UniProt O14757)
# CIT (human) = CIT (human) (UniProt O14578)
# CSNK1D (human) = CSNK1D (human) (UniProt P48730)
# CSNK2A1 (human) = CSNK2A1 (human) (UniProt P68400)
# CaMK1 (human) = CaMK1 (human) (UniProt Q14012)
# DCLK2 (human) = DCLK2 (human) (UniProt Q8N568)
# EPHB2 (human) = EPHB2 (human) (UniProt P29323)
# ERBB4 (human) = ERBB4 (human) (UniProt Q15303)
# FLT3 (human) = FLT3 (human) (UniProt P36888)
# FRK (human) = FRK (human) (UniProt P42685)
# LATS1 (human) = LATS1 (human) (UniProt O95835)
# LATS2 (human) = LATS2 (human) (UniProt Q9NRM7)
# MAP3K1 (human) = MAP3K1 (human) (UniProt Q13233)
# MAP3K5 (human) = MAP3K5 (human) (UniProt Q99683)
# MAP4K4 (human) = MAP4K4 (human) (UniProt O95819)
# MAPKAPK5 (human) = MAPKAPK5 (human) (UniProt Q8IW41)
# [1] = system: MET (human), P08581 [Y1235D]
# MYLK (human) = MYLK (human) (UniProt Q15746)
# PDGFRA (human) = PDGFRA (human) (UniProt P16234)
# PIM2 (human) = PIM2 (human) (UniProt Q9P1W9)
# PKN2 (human) = PKN2 (human) (UniProt Q16513)
# PLK3 (human) = PLK3 (human) (UniProt Q9H4B4)
# PRKAA1 (human) = PRKAA1 (human) (UniProt Q13131)
# PRPF4B (human) = PRPF4B (human) (UniProt Q13523)
# RPS6KA6 KD2 (human) = RPS6KA6 KD2 (human) (UniProt Q9UK32)
# SGK110 (human) = SGK110 (human) (UniProt P0C264)
# SRMS (human) = SRMS (human) (UniProt Q9H3Y6)
# SRPK3 (human) = SRPK3 (human) (UniProt Q9UPE1)
# STK17B (human) = STK17B (human) (UniProt O94768)
# STK33 (human) = STK33 (human) (UniProt Q9BYT3)
# STK39 (human) = STK39 (human) (UniProt Q9UEW8)
# SYK (human) = SYK (human) (UniProt P43405)
# TGFBR2 (human) = TGFBR2 (human) (UniProt P37173)
# TTK (human) = TTK (human) (UniProt P33981)
# [2] = target: TYK2 JH2 pseudokinase (human) (UniProt P29597)
# Chain of STK33 (human) (Q9BYT3 whole entry, looked up): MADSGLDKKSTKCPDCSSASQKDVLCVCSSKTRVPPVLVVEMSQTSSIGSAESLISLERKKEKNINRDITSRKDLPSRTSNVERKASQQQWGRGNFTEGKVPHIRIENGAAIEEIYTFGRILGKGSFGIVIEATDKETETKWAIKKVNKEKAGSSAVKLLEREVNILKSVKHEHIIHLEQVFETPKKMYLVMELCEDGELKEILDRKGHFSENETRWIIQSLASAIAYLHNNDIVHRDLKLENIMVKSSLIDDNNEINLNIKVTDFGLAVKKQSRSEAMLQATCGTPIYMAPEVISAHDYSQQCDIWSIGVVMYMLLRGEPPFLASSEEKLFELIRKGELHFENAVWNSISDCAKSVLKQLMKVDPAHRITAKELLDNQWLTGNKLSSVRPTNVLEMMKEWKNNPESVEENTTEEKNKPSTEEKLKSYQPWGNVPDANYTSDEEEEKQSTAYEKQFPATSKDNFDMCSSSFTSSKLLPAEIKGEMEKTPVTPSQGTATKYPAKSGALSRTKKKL
# Chain of RPS6KA6 KD2 (human) (Q9UK32 whole entry, looked up): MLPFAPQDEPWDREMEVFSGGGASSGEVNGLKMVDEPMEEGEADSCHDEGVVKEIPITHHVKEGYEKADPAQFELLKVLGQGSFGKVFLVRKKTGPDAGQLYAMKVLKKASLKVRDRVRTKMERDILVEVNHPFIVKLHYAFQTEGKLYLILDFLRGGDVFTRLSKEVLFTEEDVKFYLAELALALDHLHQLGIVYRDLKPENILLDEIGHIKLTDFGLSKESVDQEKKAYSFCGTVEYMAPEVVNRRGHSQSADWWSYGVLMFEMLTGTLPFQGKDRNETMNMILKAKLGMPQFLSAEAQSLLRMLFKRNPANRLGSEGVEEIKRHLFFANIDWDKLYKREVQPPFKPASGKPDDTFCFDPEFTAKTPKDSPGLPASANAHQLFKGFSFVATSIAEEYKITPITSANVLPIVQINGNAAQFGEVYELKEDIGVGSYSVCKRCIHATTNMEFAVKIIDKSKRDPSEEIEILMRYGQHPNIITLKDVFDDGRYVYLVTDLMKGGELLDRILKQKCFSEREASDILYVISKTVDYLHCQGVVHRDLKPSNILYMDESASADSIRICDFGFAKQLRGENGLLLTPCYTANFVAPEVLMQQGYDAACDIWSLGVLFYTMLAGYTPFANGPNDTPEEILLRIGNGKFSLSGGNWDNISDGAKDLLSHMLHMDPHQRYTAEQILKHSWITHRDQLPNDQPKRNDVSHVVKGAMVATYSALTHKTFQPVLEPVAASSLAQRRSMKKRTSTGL
# Chain of PRPF4B (human) (Q13523 whole entry, looked up): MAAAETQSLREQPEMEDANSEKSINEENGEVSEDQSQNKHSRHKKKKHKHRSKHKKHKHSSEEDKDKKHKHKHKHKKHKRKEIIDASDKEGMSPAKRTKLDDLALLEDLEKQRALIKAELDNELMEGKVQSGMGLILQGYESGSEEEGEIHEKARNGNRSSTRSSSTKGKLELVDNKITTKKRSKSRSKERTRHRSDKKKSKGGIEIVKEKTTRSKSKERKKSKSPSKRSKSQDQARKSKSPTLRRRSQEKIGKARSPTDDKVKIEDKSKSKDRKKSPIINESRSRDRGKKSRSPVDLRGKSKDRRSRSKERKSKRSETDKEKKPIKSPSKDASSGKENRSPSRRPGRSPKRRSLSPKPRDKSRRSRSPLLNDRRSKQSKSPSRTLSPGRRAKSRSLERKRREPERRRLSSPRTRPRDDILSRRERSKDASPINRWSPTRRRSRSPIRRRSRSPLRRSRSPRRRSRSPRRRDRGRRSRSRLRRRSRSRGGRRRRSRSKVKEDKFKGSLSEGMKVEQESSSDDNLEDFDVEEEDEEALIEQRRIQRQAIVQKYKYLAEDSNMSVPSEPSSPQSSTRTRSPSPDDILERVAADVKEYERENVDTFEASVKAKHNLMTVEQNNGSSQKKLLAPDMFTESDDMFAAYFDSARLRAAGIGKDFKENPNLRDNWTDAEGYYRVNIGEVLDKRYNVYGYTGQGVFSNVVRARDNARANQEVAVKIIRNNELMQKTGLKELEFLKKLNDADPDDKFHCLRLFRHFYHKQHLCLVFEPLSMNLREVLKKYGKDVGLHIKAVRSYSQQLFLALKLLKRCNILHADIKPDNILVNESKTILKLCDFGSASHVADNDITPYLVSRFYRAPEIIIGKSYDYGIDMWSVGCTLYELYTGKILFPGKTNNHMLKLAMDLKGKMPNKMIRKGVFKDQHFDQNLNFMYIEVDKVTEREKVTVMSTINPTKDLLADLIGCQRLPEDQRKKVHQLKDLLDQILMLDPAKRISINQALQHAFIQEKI
# Chain of CSNK2A1 (human) (P68400 whole entry, looked up): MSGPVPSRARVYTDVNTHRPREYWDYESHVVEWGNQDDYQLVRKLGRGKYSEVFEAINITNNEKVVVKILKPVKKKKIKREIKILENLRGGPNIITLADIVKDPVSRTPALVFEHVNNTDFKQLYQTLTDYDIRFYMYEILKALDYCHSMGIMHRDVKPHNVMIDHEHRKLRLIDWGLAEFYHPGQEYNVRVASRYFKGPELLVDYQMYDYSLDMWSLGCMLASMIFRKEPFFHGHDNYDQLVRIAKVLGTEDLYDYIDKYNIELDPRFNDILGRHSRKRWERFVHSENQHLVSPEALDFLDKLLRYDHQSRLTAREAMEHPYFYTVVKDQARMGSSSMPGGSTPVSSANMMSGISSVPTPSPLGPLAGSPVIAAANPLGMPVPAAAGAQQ
# Chain of SGK110 (human) (P0C264 whole entry, looked up): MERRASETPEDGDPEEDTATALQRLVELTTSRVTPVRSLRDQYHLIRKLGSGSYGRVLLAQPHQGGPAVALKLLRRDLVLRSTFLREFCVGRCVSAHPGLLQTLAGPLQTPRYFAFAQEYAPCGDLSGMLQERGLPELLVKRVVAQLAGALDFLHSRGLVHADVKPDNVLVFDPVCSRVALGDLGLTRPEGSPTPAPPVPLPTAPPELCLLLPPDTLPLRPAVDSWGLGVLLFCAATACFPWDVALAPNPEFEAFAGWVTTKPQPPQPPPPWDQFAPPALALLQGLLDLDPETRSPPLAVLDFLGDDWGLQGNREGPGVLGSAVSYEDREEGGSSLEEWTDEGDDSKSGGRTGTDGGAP
# Chain of BMPR1A (human) (P36894 whole entry, looked up): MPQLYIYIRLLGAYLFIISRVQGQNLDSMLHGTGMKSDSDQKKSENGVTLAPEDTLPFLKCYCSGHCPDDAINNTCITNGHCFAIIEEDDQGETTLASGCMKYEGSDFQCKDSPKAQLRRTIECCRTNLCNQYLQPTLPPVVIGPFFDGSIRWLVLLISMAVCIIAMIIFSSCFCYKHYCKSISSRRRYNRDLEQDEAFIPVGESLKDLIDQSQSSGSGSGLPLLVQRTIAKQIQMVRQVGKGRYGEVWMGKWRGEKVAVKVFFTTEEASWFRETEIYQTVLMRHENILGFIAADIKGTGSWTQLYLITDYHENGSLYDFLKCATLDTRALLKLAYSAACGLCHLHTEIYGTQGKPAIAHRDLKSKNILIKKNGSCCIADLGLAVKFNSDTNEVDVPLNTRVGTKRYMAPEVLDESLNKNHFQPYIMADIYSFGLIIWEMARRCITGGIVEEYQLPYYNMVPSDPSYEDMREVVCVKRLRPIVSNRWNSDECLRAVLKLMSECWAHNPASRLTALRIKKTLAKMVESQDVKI
# Chain of EPHB2 (human) (P29323 whole entry, looked up): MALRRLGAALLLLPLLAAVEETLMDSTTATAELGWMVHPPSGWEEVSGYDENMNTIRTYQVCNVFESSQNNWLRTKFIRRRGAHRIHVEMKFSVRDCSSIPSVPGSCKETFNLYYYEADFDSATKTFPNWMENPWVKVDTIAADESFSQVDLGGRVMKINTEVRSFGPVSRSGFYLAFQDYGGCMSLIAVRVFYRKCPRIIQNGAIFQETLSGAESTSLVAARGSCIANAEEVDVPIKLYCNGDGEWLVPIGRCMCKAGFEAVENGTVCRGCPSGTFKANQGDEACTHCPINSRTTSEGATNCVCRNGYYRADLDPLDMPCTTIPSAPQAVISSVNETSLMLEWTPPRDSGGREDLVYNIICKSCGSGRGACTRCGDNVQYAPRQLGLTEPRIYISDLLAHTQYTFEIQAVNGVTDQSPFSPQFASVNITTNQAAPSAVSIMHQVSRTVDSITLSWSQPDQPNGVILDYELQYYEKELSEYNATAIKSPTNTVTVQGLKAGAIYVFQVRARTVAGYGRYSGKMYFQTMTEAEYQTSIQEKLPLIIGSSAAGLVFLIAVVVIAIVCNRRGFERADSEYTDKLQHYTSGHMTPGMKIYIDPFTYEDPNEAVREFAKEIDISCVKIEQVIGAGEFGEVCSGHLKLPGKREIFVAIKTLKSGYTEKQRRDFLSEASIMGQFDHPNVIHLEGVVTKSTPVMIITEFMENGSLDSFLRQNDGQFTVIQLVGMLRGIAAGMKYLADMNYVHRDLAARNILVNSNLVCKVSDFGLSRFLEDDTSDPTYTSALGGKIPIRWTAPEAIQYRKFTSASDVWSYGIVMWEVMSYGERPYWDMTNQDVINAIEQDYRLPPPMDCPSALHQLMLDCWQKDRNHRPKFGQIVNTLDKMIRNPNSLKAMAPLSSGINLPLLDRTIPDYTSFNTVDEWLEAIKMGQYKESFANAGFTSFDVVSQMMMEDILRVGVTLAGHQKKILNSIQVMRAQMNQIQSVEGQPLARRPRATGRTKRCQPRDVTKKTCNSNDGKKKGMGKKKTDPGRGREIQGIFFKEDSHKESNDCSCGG
# Chain of STK17B (human) (O94768 whole entry, looked up): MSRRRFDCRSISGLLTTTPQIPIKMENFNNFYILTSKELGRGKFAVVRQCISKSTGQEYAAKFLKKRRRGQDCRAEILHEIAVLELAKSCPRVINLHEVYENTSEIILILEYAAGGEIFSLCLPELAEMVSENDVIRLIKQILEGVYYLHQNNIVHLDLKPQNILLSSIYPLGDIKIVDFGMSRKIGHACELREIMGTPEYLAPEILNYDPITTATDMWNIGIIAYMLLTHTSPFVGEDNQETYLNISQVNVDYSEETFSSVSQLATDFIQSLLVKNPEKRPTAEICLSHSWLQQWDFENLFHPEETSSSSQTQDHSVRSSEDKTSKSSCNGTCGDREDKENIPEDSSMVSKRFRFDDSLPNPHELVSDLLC
"kinase still bound, per cent of control (ACVR2B (human)) [%]","kinase still bound, per cent of control (AURKB (human)) [%]","kinase still bound, per cent of control (BMPR1A (human)) [%]","kinase still bound, per cent of control (CDKL2 (human)) [%]","kinase still bound, per cent of control (CHEK1 (human)) [%]","kinase still bound, per cent of control (CIT (human)) [%]","kinase still bound, per cent of control (CSNK1D (human)) [%]","kinase still bound, per cent of control (CSNK2A1 (human)) [%]","kinase still bound, per cent of control (CaMK1 (human)) [%]","kinase still bound, per cent of control (DCLK2 (human)) [%]","kinase still bound, per cent of control (EPHB2 (human)) [%]","kinase still bound, per cent of control (ERBB4 (human)) [%]","kinase still bound, per cent of control (FLT3 (human)) [%]","kinase still bound, per cent of control (FRK (human)) [%]","kinase still bound, per cent of control (LATS1 (human)) [%]","kinase still bound, per cent of control (LATS2 (human)) [%]","kinase still bound, per cent of control (MAP3K1 (human)) [%]","kinase still bound, per cent of control (MAP3K5 (human)) [%]","kinase still bound, per cent of control (MAP4K4 (human)) [%]","kinase still bound, per cent of control (MAPKAPK5 (human)) [%]",SMILES,other results
100,100,100,100,100,100,100,100,100,100,100,100,100,100,100,100,100,100,100,100,CS(=O)(=O)N1CCN(Cc2cc3nc(-c4cccc5[nH]ncc45)nc(N4CCOCC4)c3s2)CC1,"kinase still bound, per cent of control [1]: 100%; kinase still bound, per cent of control (MYLK (human)): 100%; kinase still bound, per cent of control (PDGFRA (human)): 0%; kinase still bound, per cent of control (PIM2 (human)): 100%; kinase still bound, per cent of control (PKN2 (human)): 100%; kinase still bound, per cent of control (PLK3 (human)): 100%; kinase still bound, per cent of control (PRKAA1 (human)): 100%; kinase still bound, per cent of control (PRPF4B (human)): 100%; kinase still bound, per cent of control (RPS6KA6 KD2 (human)): 100%; kinase still bound, per cent of control (SGK110 (human)): 100%; kinase still bound, per cent of control (SRMS (human)): 100%; kinase still bound, per cent of control (SRPK3 (human)): 100%; kinase still bound, per cent of control (STK17B (human)): 100%; kinase still bound, per cent of control (STK33 (human)): 100%; kinase still bound, per cent of control (STK39 (human)): 100%; kinase still bound, per cent of control (SYK (human)): 100%; kinase still bound, per cent of control (TGFBR2 (human)): 100%; kinase still bound, per cent of control (TTK (human)): 100%; kinase still bound, per cent of control [2]: 100%"
100,100,100,100,100,100,100,100,100,100,100,100,100,100,100,100,100,100,100,100,CCN(CC)CCCCNc1ncc2c(n1)N(C)C(=O)N(c1c(Cl)c(OC)cc(OC)c1Cl)C2,"kinase still bound, per cent of control [1]: 100%; kinase still bound, per cent of control (MYLK (human)): 100%; kinase still bound, per cent of control (PDGFRA (human)): 100%; kinase still bound, per cent of control (PIM2 (human)): 100%; kinase still bound, per cent of control (PKN2 (human)): 100%; kinase still bound, per cent of control (PLK3 (human)): 100%; kinase still bound, per cent of control (PRKAA1 (human)): 100%; kinase still bound, per cent of control (PRPF4B (human)): 100%; kinase still bound, per cent of control (RPS6KA6 KD2 (human)): 100%; kinase still bound, per cent of control (SGK110 (human)): 100%; kinase still bound, per cent of control (SRMS (human)): 100%; kinase still bound, per cent of control (SRPK3 (human)): 100%; kinase still bound, per cent of control (STK17B (human)): 100%; kinase still bound, per cent of control (STK33 (human)): 100%; kinase still bound, per cent of control (STK39 (human)): 100%; kinase still bound, per cent of control (SYK (human)): 100%; kinase still bound, per cent of control (TGFBR2 (human)): 100%; kinase still bound, per cent of control (TTK (human)): 100%; kinase still bound, per cent of control [2]: 100%"
100,100,100,100,100,100,100,100,100,0.45,100,100,100,2.6,100,100,100,100,100,100,COc1cc(N2CCN(C)CC2)ccc1Nc1ncc2c(n1)N(C)c1ccccc1C(=O)N2C,"kinase still bound, per cent of control [1]: 100%; kinase still bound, per cent of control (MYLK (human)): 13%; kinase still bound, per cent of control (PDGFRA (human)): 100%; kinase still bound, per cent of control (PIM2 (human)): 100%; kinase still bound, per cent of control (PKN2 (human)): 100%; kinase still bound, per cent of control (PLK3 (human)): 100%; kinase still bound, per cent of control (PRKAA1 (human)): 100%; kinase still bound, per cent of control (PRPF4B (human)): 100%; kinase still bound, per cent of control (RPS6KA6 KD2 (human)): 4.9%; kinase still bound, per cent of control (SGK110 (human)): 30%; kinase still bound, per cent of control (SRMS (human)): 100%; kinase still bound, per cent of control (SRPK3 (human)): 100%; kinase still bound, per cent of control (STK17B (human)): 100%; kinase still bound, per cent of control (STK33 (human)): 8.8%; kinase still bound, per cent of control (STK39 (human)): 23%; kinase still bound, per cent of control (SYK (human)): 100%; kinase still bound, per cent of control (TGFBR2 (human)): 100%; kinase still bound, per cent of control (TTK (human)): 26%; kinase still bound, per cent of control [2]: 100%"

SMILES,"kinase still bound, per cent of control (ACVR2B (human)) [%]","kinase still bound, per cent of control (AURKB (human)) [%]","kinase still bound, per cent of control (BMPR1A (human)) [%]","kinase still bound, per cent of control (CDKL2 (human)) [%]","kinase still bound, per cent of control (CHEK1 (human)) [%]","kinase still bound, per cent of control (CIT (human)) [%]","kinase still bound, per cent of control (CSNK1D (human)) [%]","kinase still bound, per cent of control (CSNK2A1 (human)) [%]","kinase still bound, per cent of control (CaMK1 (human)) [%]","kinase still bound, per cent of control (DCLK2 (human)) [%]","kinase still bound, per cent of control (EPHB2 (human)) [%]","kinase still bound, per cent of control (ERBB4 (human)) [%]","kinase still bound, per cent of control (FLT3 (human)) [%]","kinase still bound, per cent of control (FRK (human)) [%]","kinase still bound, per cent of control (LATS1 (human)) [%]","kinase still bound, per cent of control (LATS2 (human)) [%]","kinase still bound, per cent of control (MAP3K1 (human)) [%]","kinase still bound, per cent of control (MAP3K5 (human)) [%]","kinase still bound, per cent of control (MAP4K4 (human)) [%]","kinase still bound, per cent of control (MAPKAPK5 (human)) [%]",other results
N#CCNC(=O)c1ccc(-c2ccnc(Nc3ccc(N4CCOCC4)cc3)n2)cc1,54,69,3.6,69,100,0.35,100,52,59,55,100,100,100,98,100,74,92,100,85,4.4,"kinase still bound, per cent of control [1]: 100%; kinase still bound, per cent of control (MYLK (human)): 100%; kinase still bound, per cent of control (PDGFRA (human)): 100%; kinase still bound, per cent of control (PIM2 (human)): 100%; kinase still bound, per cent of control (PKN2 (human)): 47%; kinase still bound, per cent of control (PLK3 (human)): 11%; kinase still bound, per cent of control (PRKAA1 (human)): 42%; kinase still bound, per cent of control (PRPF4B (human)): 8%; kinase still bound, per cent of control (RPS6KA6 KD2 (human)): 52%; kinase still bound, per cent of control (SGK110 (human)): 83%; kinase still bound, per cent of control (SRMS (human)): 100%; kinase still bound, per cent of control (SRPK3 (human)): 18%; kinase still bound, per cent of control (STK17B (human)): 2.6%; kinase still bound, per cent of control (STK33 (human)): 98%; kinase still bound, per cent of control (STK39 (human)): 47%; kinase still bound, per cent of control (SYK (human)): 32%; kinase still bound, per cent of control (TGFBR2 (human)): 89%; kinase still bound, per cent of control (TTK (human)): 22%; kinase still bound, per cent of control [2]: 100%"
